Among the test systems are COLO 205 colon; SF-268 CNS; DU-145 prostate; OVCAR-4 ovarian; SK-MEL-5 melanoma; SK-MEL-2 melanoma; OVCAR-3 ovarian; SK-OV-3 ovarian; NCI-H522 lung; TK-10 renal.
Assay in all cases: NCI tumour cell line growth inhibition, 48 h

Each structure is given as a SMILES string.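 A five-concentration, 48-hour dose response in 96-well plates underlies each endpoint, interpolated linearly between surrounding concentrations. The concentration for 50% growth inhibition is given as GI50. Definition used: TGI = concentration required for complete inhibition of growth.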

For the molecule `O=C(OCCBr)c1ccc(Cl)c([N+](=O)[O-])c1`, the GI50 in the experiment on COLO 205 colon is 16.8 µM; in the experiment on SF-268 CNS it was 5.44 µM; in the experiment on DU-145 prostate, 2.31 µM; in the experiment with OVCAR-4 ovarian, 10.2 µM; in the experiment on SK-MEL-5 melanoma it was 14.9 µM; with SK-MEL-2 melanoma, 16.3 µM. The GI50 in the experiment with OVCAR-3 ovarian was 2.69 µM; with SK-OV-3 ovarian, 17.2 µM; with NCI-H522 lung it was 0.957 µM; in the experiment with TK-10 renal, more than 51.1 µM. For the same molecule, the TGI with COLO 205 colon turned out to be 31.5 µM; with SF-268 CNS, 10.3 µM; with DU-145 prostate, 5.27 µM; with OVCAR-4 ovarian, 23 µM; in the experiment with SK-MEL-5 melanoma, 28.5 µM; in the experiment with SK-MEL-2 melanoma it was 35.1 µM. For the same molecule, the TGI with OVCAR-3 ovarian was 6.43 µM; in the experiment on SK-OV-3 ovarian, 31 µM; in the experiment on NCI-H522 lung it was 3.04 µM; in the experiment on TK-10 renal, more than 86.8 µM.

In the case of `Nc1n[nH]c2ccc([C@@H]3Nc4ccc5[nH]ncc5c4[C@H]4C5C=CC(C5)[C@@H]34)cc12` (stereo not given in full), the GI50 is 0.332 µM in the experiment on COLO 205 colon; 1.36 µM in the experiment with SF-268 CNS; 0.445 µM in the experiment with DU-145 prostate; 1.76 µM in the experiment with OVCAR-4 ovarian; 0.338 µM in the experiment with SK-MEL-5 melanoma; 4.14 µM in the experiment with SK-MEL-2 melanoma. Further, the GI50 in the experiment with OVCAR-3 ovarian is 0.291 µM; with SK-OV-3 ovarian, 1.03 µM; in the experiment with NCI-H522 lung, 0.173 µM; in the experiment with TK-10 renal, 12 µM. Moreover, the TGI in the experiment with COLO 205 colon was 1.83 µM; in the experiment with SF-268 CNS, 31.5 µM; in the experiment on DU-145 prostate it was more than 30.8 µM; in the experiment with OVCAR-4 ovarian it was more than 90.7 µM; with SK-MEL-5 melanoma it was 1.58 µM; in the experiment with SK-MEL-2 melanoma, 28 µM. The TGI is 4.23 µM in the experiment on OVCAR-3 ovarian, 42.8 µM with SK-OV-3 ovarian, 12.7 µM with NCI-H522 lung and more than 100 µM in the experiment with TK-10 renal.

Regarding `Nc1c(C(=O)Nc2ccccc2)sc2nc3c(cc12)CN(Cc1ccccc1)CC3`, the GI50 with COLO 205 colon was 24 µM; in the experiment on SF-268 CNS, 5.62 µM; in the experiment with DU-145 prostate, 14.8 µM; in the experiment with OVCAR-4 ovarian it was 1.97 µM; with SK-MEL-5 melanoma it was 9.58 µM; in the experiment with SK-MEL-2 melanoma, 20.3 µM. The GI50 with OVCAR-3 ovarian was 11.4 µM; with SK-OV-3 ovarian it was 3.53 µM; in the experiment on NCI-H522 lung, 32.5 µM; with TK-10 renal it was 4.09 µM. For the same molecule, the TGI in the experiment with COLO 205 colon is more than 100 µM; in the experiment on SF-268 CNS, more than 100 µM; in the experiment with DU-145 prostate it was more than 100 µM; in the experiment with OVCAR-4 ovarian, 23.1 µM; in the experiment with SK-MEL-5 melanoma, more than 100 µM; in the experiment on SK-MEL-2 melanoma, more than 100 µM. Also, the TGI is more than 100 µM in the experiment on OVCAR-3 ovarian, more than 100 µM in the experiment with SK-OV-3 ovarian, more than 100 µM in the experiment on NCI-H522 lung and 54.7 µM in the experiment with TK-10 renal.

Regarding `O=C(N/N=C/c1cc([N+](=O)[O-])ccc1O)c1cccc2ccccc12`, the GI50 with COLO 205 colon is 3.41 µM; in the experiment with SF-268 CNS, 4.12 µM; in the experiment with DU-145 prostate, 6.2 µM; in the experiment with OVCAR-4 ovarian, 1.2 µM; with SK-MEL-5 melanoma, 3.15 µM; in the experiment with SK-MEL-2 melanoma, 6.69 µM. Besides, the GI50 was 3.67 µM in the experiment on OVCAR-3 ovarian, 4 µM in the experiment with SK-OV-3 ovarian, 3.47 µM in the experiment with NCI-H522 lung and 4.4 µM in the experiment with TK-10 renal. For the same molecule, the TGI in the experiment with COLO 205 colon was 16.3 µM; with SF-268 CNS, more than 100 µM; with DU-145 prostate it was more than 100 µM; in the experiment on OVCAR-4 ovarian, 26.2 µM; with SK-MEL-5 melanoma, 14.3 µM; in the experiment on SK-MEL-2 melanoma it was more than 100 µM. For the same molecule, the TGI is more than 100 µM with OVCAR-3 ovarian, 33.3 µM in the experiment on SK-OV-3 ovarian, 22 µM in the experiment with NCI-H522 lung and 72.9 µM in the experiment with TK-10 renal.

For `Nc1cc(N)c2nc(-c3ccccc3)c(NCc3ccc(F)cc3)nc2c1`, the GI50 was 2.53 µM in the experiment on COLO 205 colon; 2.81 µM in the experiment on SF-268 CNS; 1.5 µM in the experiment on DU-145 prostate; 1.69 µM in the experiment on OVCAR-4 ovarian; 1.88 µM with SK-MEL-5 melanoma; 5.21 µM in the experiment on SK-MEL-2 melanoma. For the same molecule, the GI50 in the experiment with OVCAR-3 ovarian was 2.39 µM; in the experiment on SK-OV-3 ovarian it was 12.9 µM; in the experiment with NCI-H522 lung it was more than 100 µM; in the experiment with TK-10 renal it was 5.83 µM. Moreover, the TGI with COLO 205 colon is 6.18 µM; in the experiment on SF-268 CNS, 7.54 µM; with DU-145 prostate, 3.81 µM; with OVCAR-4 ovarian it was 8.08 µM; in the experiment with SK-MEL-5 melanoma, 3.61 µM; in the experiment on SK-MEL-2 melanoma, more than 100 µM. Besides, the TGI was 6.42 µM in the experiment on OVCAR-3 ovarian, 26.4 µM in the experiment on SK-OV-3 ovarian, more than 100 µM in the experiment with NCI-H522 lung and 19.8 µM with TK-10 renal.

As to `CC(C)(C#N)c1cc(C(=O)Nc2cc(Nc3ncccc3-c3ncnc4nc[nH]c34)ccc2F)cc(C(F)(F)F)c1`, the GI50 in the experiment with COLO 205 colon was 0.131 µM; with DU-145 prostate, more than 2.01 µM; with OVCAR-4 ovarian it was 1.3 µM; in the experiment with SK-MEL-5 melanoma it was 0.589 µM; in the experiment with SK-MEL-2 melanoma, 0.315 µM; with SK-OV-3 ovarian it was more than 2.38 µM. In addition, the TGI in the experiment on SF-268 CNS is more than 10 µM; in the experiment with DU-145 prostate it was more than 10 µM; in the experiment on OVCAR-4 ovarian it was more than 2.93 µM; in the experiment on SK-MEL-5 melanoma, more than 1.98 µM; with SK-MEL-2 melanoma it was more than 2.08 µM; in the experiment with OVCAR-3 ovarian, more than 4.1 µM. The values for the TGI in the experiment with SK-OV-3 ovarian, in the experiment with NCI-H522 lung and with TK-10 renal were more than 10 µM, more than 6.56 µM and more than 4.17 µM, respectively.

With `CS(=O)(=O)Nc1ccc(N=Cc2c(O)[nH]c3ccccc23)cc1`, the GI50 in the experiment on COLO 205 colon, in the experiment with SF-268 CNS, in the experiment with DU-145 prostate, with OVCAR-4 ovarian, in the experiment on SK-MEL-5 melanoma and in the experiment on SK-MEL-2 melanoma was more than 25 µM throughout. Besides, the GI50 in the experiment with OVCAR-3 ovarian, in the experiment with SK-OV-3 ovarian, in the experiment with NCI-H522 lung and in the experiment on TK-10 renal was more than 25 µM in each case. The TGI with COLO 205 colon, with SF-268 CNS, in the experiment with DU-145 prostate, with OVCAR-4 ovarian, in the experiment on SK-MEL-5 melanoma and with SK-MEL-2 melanoma was more than 25 µM each time. In addition, the TGI in the experiment on OVCAR-3 ovarian, in the experiment on SK-OV-3 ovarian, with NCI-H522 lung and in the experiment on TK-10 renal was more than 25 µM each time.

The values are drawn from PubChem BioAssay (NCI).
